# Reference: US20150218654A1, “METHODS FOR PREDICTING MULTIPLE MYELOMA TREATMENT RESPONSE” (INSERM (INSTITUT NATIONAL DE LA SANTÉ ET DE LA RE- CHERCHE …, priority 2012, published 2015)
# Assays:
# [1] = tested on: HMCLs XG-5, XG-6, XG-7, XG-20 and LP1; conditions: 0.5 μM, 7 days, 5 HMCLs
# Protocol: Control cells were cultured in the same conditions without adding drug. […] Biotinylated cRNA was amplified with a double in vitro transcription and hybridized to the human U133 2.0 plus GeneChips, according to the manufacturer's instructions (Affymetrix, Santa Clara, Calif.). Fluorescence intensities were quantified and analyzed using the GECOS software (Affymetrix). Gene expression data were normalized with the MASS algorithm and analyzed with inventor's bioinformatics platforms-RAGE (http://[…] Amazonia (http://amazonia.[…] /) (36)-or SAM (Significance Analysis of Microarrays) software (37). The statistical significance of differences in overall survival between groups of patients was calculated by the log-rank test. Multivariate analysis was performed using the Cox proportional hazards model. Survival curves were plotted using the Kaplan-Meier method. All these analyses have been done with R.2.10.1 (http://www.r-project.org/) and bioconductor version 2.5. Gene annotation and networks were generated through the use of Ingenuity Pathways Analysis (Ingenuity® Systems, Redwood City, Calif.) (38).
# [2] = Cell viability of HMCLs by trypan blue exclusion; format: cell-based, human; conditions: human; for viability at 3 days, 0.5 μM: Day 3, mean ± SD; for viability at 7 days, 0.5 μM: Day 7, mean ± SD
# Protocol: (§1) The human MM cell lines XG-5, XG-6, XG-7, XG-20 and LP1 were grown in RPMI 1640 supplemented with 10% fetal bovine serum and 2 ng/ml recombinant IL-6. Cells (2×10^5/mL) were treated either with 0.5 μmol/L 5-Aza-2′-deoxycytidine (decitabine) (Sigma, St. Louis, Mo.) for 7 days.
# HMCLs = test: Cell viability of HMCLs by trypan blue exclusion; format: cell-based, human; conditions: five HMCLs, 0.5 μM for 7 days
# Protocol: as §1
# [3] = LP1 multiple myeloma cells, LP1, 0.5 μM decitabine
# [4] = XG-5 multiple myeloma cells, XG-5, 0.5 μM decitabine
# [5] = XG-6 multiple myeloma cells, XG-6, 0.5 μM decitabine
# [6] = XG-7 multiple myeloma cells, XG-7, 0.5 μM decitabine
# [7] = XG-20 multiple myeloma cells, XG-20, 0.5 μM decitabine
structure (smiles),measurement,setting,value
"Nc1ncn([C@H]2C[C@H](O)[C@@H](CO)O2)c(=O)n1 [decitabine, 5-Aza-2′-deoxycytidine]",number of genes downregulated,[1]; FDR <5%,79 genes
same,number of genes significantly upregulated,[1]; FDR <5%,48 genes
same,Ratio 226719_at (CDNA FLJ34899 fis),[1]; treated vs control,0.53
same,Ratio 227755_at (CDNA FLJ42435 fis),[1]; treated vs control,0.53
same,Ratio 229969_at (Transcribed locus),[1]; treated vs control,0.41
same,Ratio 230570_at (Transcribed locus),[1]; treated vs control,0.37
same,Ratio 244623_at (Transcribed locus),[1]; treated vs control,0.39
same,Ratio ACRC (238825_at),[1]; treated vs control,25.99
same,Ratio ADFP (209122_at),[1]; treated vs control,3.70
same,Ratio AIG1 (223136_at),[1]; treated vs control,0.41
same,Ratio ALDH1L2 (231202_at),[1]; treated vs control,0.45
same,Ratio ARHGAP9 (224451_x_at),[1]; treated vs control,0.38
same,Ratio ATP1B1 (201243_s_at),[1]; treated vs control,3.43
same,Ratio C6orf48 (220755_s_at),[1]; treated vs control,0.49
same,Ratio C10orf57 (222545_s_at),[1]; treated vs control,0.56
same,Ratio C12orf5 (219099_at),[1]; treated vs control,2.16
same,Ratio C17orf27 (230000_at),[1]; treated vs control,2.41
same,Ratio C20orf118 (235964_x_at),[1]; treated vs control,2.12
same,Ratio CADPS2 (219572_at),[1]; treated vs control,0.37
same,Ratio CBS (212816_s_at),[1]; treated vs control,0.41
same,Ratio CBX4 (227558_at),[1]; treated vs control,0.49
same,Ratio CCPG1 (214152_at),[1]; treated vs control,0.44
same,Ratio COP1 (1552701_a_at),[1]; treated vs control,2.34
same,Ratio COPB2 (213500_at),[1]; treated vs control,0.58
same,Ratio CORO1A (209083_at),[1]; treated vs control,2.38
same,Ratio CT45-2 (235700_at),[1]; treated vs control,30.39
same,Ratio CTAGE5 (215930_s_at),[1]; treated vs control,0.30
same,Ratio CTBS (218923_at),[1]; treated vs control,0.42
same,Ratio DHCR7 (201791_s_at),[1]; treated vs control,0.45
same,Ratio DKFZP586A0522 (207761_s_at),[1]; treated vs control,2.97
same,Ratio DNAJB9 (1554462_a_at),[1]; treated vs control,0.42
same,Ratio DPYD (204646_at),[1]; treated vs control,0.48
same,Ratio DYRK4 (212954_at),[1]; treated vs control,0.42
same,Ratio EAF2 (219551_at),[1]; treated vs control,0.46
same,Ratio EIF2C2 (222294_s_at),[1]; treated vs control,0.52
same,Ratio EIF2S2 (208725_at),[1]; treated vs control,0.46
same,Ratio ELF4 (31845_at),[1]; treated vs control,1.75
same,Ratio ELL2 (226982_at),[1]; treated vs control,0.45
same,Ratio EPSTI1 (227609_at),[1]; treated vs control,1.99
same,Ratio ERN1 (235745_at),[1]; treated vs control,0.35
same,Ratio FKBP11 (219118_at),[1]; treated vs control,0.38
same,Ratio FLJ22028 (219802_at),[1]; treated vs control,0.44
same,Ratio FNDC3A (202304_at),[1]; treated vs control,0.40
same,Ratio G1P2 (205483_s_at),[1]; treated vs control,2.77
same,Ratio GALNT3 (203397_s_at),[1]; treated vs control,0.65
same,Ratio GLS (203157_s_at),[1]; treated vs control,0.42
same,Ratio GNG7 (228831_s_at),[1]; treated vs control,0.33
same,Ratio GOLPH3L (218361_at),[1]; treated vs control,0.45
same,Ratio GSK3B (226183_at),[1]; treated vs control,0.49
same,Ratio GSN (200696_s_at),[1]; treated vs control,3.97
same,Ratio H2-ALPHA (216323_x_at),[1]; treated vs control,2.56
same,Ratio HBS1L (209314_s_at),[1]; treated vs control,0.53
same,Ratio HEXIM1 (202814_s_at),[1]; treated vs control,2.18
same,Ratio HIST1H2BG (210387_at),[1]; treated vs control,2.00
same,Ratio HLA-DPA1 (211990_at),[1]; treated vs control,1.70
same,Ratio HN1 (217755_at),[1]; treated vs control,2.17
same,Ratio ID2 (201565_s_at),[1]; treated vs control,2.76
same,Ratio IDH1 (1555037_a_at),[1]; treated vs control,0.53
same,Ratio IER3 (201631_s_at),[1]; treated vs control,3.97
same,Ratio IFI27 (202411_at),[1]; treated vs control,2.84
same,Ratio IFI35 (209417_s_at),[1]; treated vs control,1.93
same,Ratio IFRD1 (202146_at),[1]; treated vs control,0.51
same,Ratio IGF1 (209541_at),[1]; treated vs control,0.43
same,Ratio IL21R (221658_s_at),[1]; treated vs control,0.50
same,Ratio INHBE (210587_at),[1]; treated vs control,0.55
same,Ratio INSIG1 (201625_s_at),[1]; treated vs control,0.34
same,Ratio ITGB7 (205718_at),[1]; treated vs control,2.11
same,Ratio KIAA0776 (212633_at),[1]; treated vs control,0.49
same,Ratio KIAA1509 (215343_at),[1]; treated vs control,2.21
same,Ratio KIF21B (204411_at),[1]; treated vs control,0.53
same,Ratio LOC220930 (229090_at),[1]; treated vs control,0.45
same,Ratio LRP16 (219188_s_at),[1]; treated vs control,0.36
same,Ratio MAGEA9 (210437_at),[1]; treated vs control,1.68
same,Ratio MAN1A1 (221760_at),[1]; treated vs control,0.43
same,Ratio MANEA (222805_at),[1]; treated vs control,0.51
same,Ratio MGC15875 (232488_at),[1]; treated vs control,0.55
same,Ratio MIRN21 (224917_at),[1]; treated vs control,1.99
same,Ratio MLLT11 (211071_s_at),[1]; treated vs control,2.53
same,Ratio MTHFD1L (225520_at),[1]; treated vs control,0.41
same,Ratio MUC1 (207847_s_at),[1]; treated vs control,2.92
same,Ratio MX1 (202086_at),[1]; treated vs control,1.73
same,Ratio MYLIP (223129_x_at),[1]; treated vs control,2.00
same,Ratio NFE2L1 (214179_s_at),[1]; treated vs control,0.59
same,Ratio NMES1 (223484_at),[1]; treated vs control,23.96
same,Ratio NMI (203964_at),[1]; treated vs control,1.86
same,Ratio NQO1 (201468_s_at),[1]; treated vs control,2.15
same,Ratio OAS1 (205552_s_at),[1]; treated vs control,1.65
same,Ratio OPN1SW (229549_at),[1]; treated vs control,0.40
same,Ratio PARP12 (218543_s_at),[1]; treated vs control,1.92
same,Ratio PCK2 (202847_at),[1]; treated vs control,0.47
same,Ratio PGM3 (221788_at),[1]; treated vs control,0.49
same,Ratio PHGDH (201397_at),[1]; treated vs control,0.36
same,Ratio PLAC1 (219702_at),[1]; treated vs control,0.42
same,Ratio PPAPDC1B (223569_at),[1]; treated vs control,0.42
same,Ratio PSCDBP (209606_at),[1]; treated vs control,0.48
same,Ratio PSPH (205194_at),[1]; treated vs control,0.38
same,Ratio RECQL (213878_at),[1]; treated vs control,0.44
same,Ratio RPL37 (224763_at),[1]; treated vs control,0.35
same,Ratio SAMD9 (228531_at),[1]; treated vs control,2.06
same,Ratio SCD (200831_s_at),[1]; treated vs control,0.39
same,Ratio SEC24D (202375_at),[1]; treated vs control,0.31
same,Ratio SEC63 (201915_at),[1]; treated vs control,0.51
same,Ratio SEL1L (202061_s_at),[1]; treated vs control,0.56
same,Ratio SESN2 (223195_s_at),[1]; treated vs control,0.47
same,Ratio SFN (33322_i_at),[1]; treated vs control,4.34
same,Ratio SLAMF7 (222838_at),[1]; treated vs control,0.51
same,Ratio SLC1A4 (209610_s_at),[1]; treated vs control,0.54
same,Ratio SLC1A5 (208916_at),[1]; treated vs control,0.40
same,Ratio SLC7A11 (209921_at),[1]; treated vs control,0.41
same,Ratio SNTB1 (226438_at),[1]; treated vs control,0.36
same,Ratio SP110 (208012_x_at),[1]; treated vs control,2.11
same,Ratio SSR3 (217790_s_at),[1]; treated vs control,0.40
same,Ratio STAT1 (209969_s_at),[1]; treated vs control,2.55
same,Ratio STCH (202558_s_at),[1]; treated vs control,0.47
same,Ratio STK17A (202693_s_at),[1]; treated vs control,2.52
same,Ratio SULT1A3 (210580_x_at),[1]; treated vs control,2.52
same,Ratio TBC1D16 (222116_s_at),[1]; treated vs control,0.70
same,Ratio TKTL1 (214183_s_at),[1]; treated vs control,85.24
same,Ratio TMEM39A (222690_s_at),[1]; treated vs control,0.46
same,Ratio TMEM49 (1569003_at),[1]; treated vs control,2.33
same,Ratio TPST2 (204079_at),[1]; treated vs control,2.20
same,Ratio TRIB3 (218145_at),[1]; treated vs control,0.41
same,Ratio TSC22D3 (208763_s_at),[1]; treated vs control,0.53
same,Ratio TUBA2 (210527_x_at),[1]; treated vs control,2.50
same,Ratio TUBA3 (209118_s_at),[1]; treated vs control,2.23
same,Ratio TUBB2 (204141_at),[1]; treated vs control,5.07
same,Ratio TUBE1 (226181_at),[1]; treated vs control,0.38
same,Ratio ZNF275 (225382_at),[1]; treated vs control,0.35
same,Ratio ZNF706 (227132_at),[1]; treated vs control,0.49
same,"viability at 3 days, 0.5 μM",[2]; [3],91 ± 2%
same,"viability at 7 days, 0.5 μM",[2]; [3],86 ± 4%
same,"viability at 3 days, 0.5 μM",[2]; [4],65 ± 5%
same,"viability at 7 days, 0.5 μM",[2]; [4],69 ± 6%
same,"viability at 3 days, 0.5 μM",[2]; [5],90 ± 1%
same,"viability at 7 days, 0.5 μM",[2]; [5],90 ± 1%
same,"viability at 3 days, 0.5 μM",[2]; [6],90 ± 2%
same,"viability at 7 days, 0.5 μM",[2]; [6],85 ± 5%
same,"viability at 3 days, 0.5 μM",[2]; [7],91 ± 3%
same,"viability at 7 days, 0.5 μM",[2]; [7],83 ± 5%
same,effect on myeloma cell viability,HMCLs,did not affect myeloma cell viability
